Each compound was assayed against T1, Central CCK Receptors (Mus musculus, UniProt P56481) (assay: Binding to central CCK receptors, displacement of tritiated pentagastrin from cerebral cortical membranes of male CFLP mice). Details: cerebral cortexes taken from male CFLP mice; 2 nM tritiated-pentagastrin.
T1 construct: from tissue; host or cells: cerebral cortex membranes of male CFLP mice (30-40 g)
T1 sequence (P56481 1-453): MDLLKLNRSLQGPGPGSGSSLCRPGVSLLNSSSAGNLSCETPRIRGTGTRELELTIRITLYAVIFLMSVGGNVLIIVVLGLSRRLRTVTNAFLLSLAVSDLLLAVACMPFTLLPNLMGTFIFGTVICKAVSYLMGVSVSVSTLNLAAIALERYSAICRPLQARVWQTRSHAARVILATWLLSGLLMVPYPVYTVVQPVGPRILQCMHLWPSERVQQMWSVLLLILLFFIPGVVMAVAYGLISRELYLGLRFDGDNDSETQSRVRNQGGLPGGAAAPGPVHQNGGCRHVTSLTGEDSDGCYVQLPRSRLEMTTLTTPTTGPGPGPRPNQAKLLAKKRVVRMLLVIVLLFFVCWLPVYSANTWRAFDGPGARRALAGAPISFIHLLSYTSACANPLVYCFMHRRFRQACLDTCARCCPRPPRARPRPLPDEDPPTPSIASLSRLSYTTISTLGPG
Design: species or system mouse (male CFLP)
Method: The biological activity of compounds of the present invention was evaluated employing an initial screening test which rapidly and accurately measured the binding of the tested compound to known CCK receptor sites. […] (See Hays et al, Neuropeptides 1:53-62, 1980; and Satuer et al, Science 208:1155-1156, 1980).
In this screening test, the cerebral cortices taken from male CFLP mice weighing between 30-40 g were dissected on ice, weighed, and homogenized in 10 volumes of 50 mM Tris-HCl buffer (pH 7.4 at 0°-4° C.). The resulting suspension was centrifuged, the supernate was discarded, and the pellet was washed by resuspension in Tris-HCl buffer followed by recentrifugation. The final pellet was resuspended in 20 volumes of […] Hepes buffer (pH 7.2 at 23° C.) containing 130 mM NaCl, […] KCl, […] MgCl2, […] EDTA, 5 mg/mL bovine albumin, and bacitracin (0.25 mg/mL).
In saturation studies, cerebral cortical membranes were incubated at 23° C. for 120 minutes in a final volume of 500 μL of Hepes incubation buffer (pH 7.2) together with […] tritiated-pentagastrin (Amersham International, England).
In the displacement experiments, membranes were incubated with a single concentration (2 nM) of ligand, together with increasing concentrations (10^-11 to […]) of competitive test compound. In each case, the nonspecific binding was defined as that persisting in the presence of the unlabeled octapeptide CCK26-33 (10^-6 M)
Following incubation, radioactivity bound to membranes was separated from that free in solution by rapid filtration through Whatman GF/B filters and washed three times with 4 mL of ice cold Tris-HCl buffer. Filters from samples incubated with tritiated-pentagastrin were placed in polyethylene vials with 4 mL of scintillation cocktail, and the radioactivity was estimated by liquid scintillation spectrometry (efficiency 47-52%).
Saturation curves for specific tritiated- pentagastrin binding to mouse cortical membranes were analyzed by the methods of Scatchard (Ann. New York Acad. Sci. 51:660-672, 1949, and Hill (J. Physiol. 40:IV-VIII, 1910), to provide estimates for the maximum number of binding sites (Bmax) and the equilibrium dissociation constant (Ka).
In displacement experiments, inhibition curves were analyzed by either logit-log plots or the iterative curve fitting computer program ALLFIT (DeLean, Munson and Redbard, 1978) to provide estimates of the IC50 and nH (apparent Hill coefficient) values).
The inhibition constant (Ki) of the test compound was then calculated according to the Cheng-Prusoff equation: [formula] where [L] is the concentration of radiolabel and Ka is the equilibrium dissociation constant.

Going from COC[C@H]1CCCN1NC(=O)[C@@](C)(Cc1c[nH]c2ccccc12)NC(=O)OC1C2CC3CC(C2)CC1C3 (stereo partly drawn) [Example 113, Tricyclo [3.3.1.1^3,7]dec-2-yl [R-(R*,R*)]-[-(1H-indol-3-ylmethyl)-2-[[2-(methoxymethyl)-1-pyrrolidinyl]amino]-1-methyl-2-oxoethyl]carbamate] to CC1CCCCC1NC(=O)C(C)(Cc1c[nH]c2ccccc12)NC(=O)OC1C2CC3CC(C2)CC1C3 (stereo not shown) [Example 117, Tricyclo[3.3.1.1^3,7]dec-2-yl ester[1-(1H-indol-3-ylmethyl)-1-methyl-2[(2-methylcyclohexyl)amino]-2-oxoethyl]carbamate], the Ki rises from 2.5 nM to 39 nM (16-fold). The first binds more tightly here.

First: O=C(N[C@@H](CN[C@H](CO)Cc1ccccc1)Cc1c[nH]c2ccccc12)OC1C2CC3CC(C2)CC1C3 (stereo partly drawn) [Example 1, Tricyclo[3.3.1.1^3,7]dec-2-yl[S-(R)]-[2-[[1 - (hydroxy-methyl)-2-phenylethyl]amino]-1-(1H-indol-3-ylmethyl)ethyl]carbamate]
Second: C[C@](Cc1c[nH]c2ccccc12)(NC(=O)OC1C2CC3CC(C2)CC1C3)C(=O)NCCC(=O)N[C@H](CO)Cc1ccccc1 (stereo partly drawn) [Example 23, Carbamic acid, [2-[[3-[[1-(hydroxymethyl)-2-phenyl-ethyl]amino]-3-oxopropyl]amino]-1-(1H-indol-3-ylmethyl)-1-methyl-2-oxoethyl]-, tricyclo-[3.3.1.1^3,7]dec-2-vl ester. [R-(R*.S*)]-]
The Ki of the first is 14-fold higher: 11500 nM for the first, 800 nM for the second. The second binds more tightly here.

Going from C[C@](Cc1c[nH]c2ccccc12)(NC(=O)OC1C2CC3CC(C2)CC1C3)C(=O)NCCC(=O)N[C@H](Cc1ccccc1)C(=O)O (stereo partly drawn) [Example 32, D-Phenylalanine, N-[N-[α-methyl-N-[(tricyclo-[3.3.1.1^3,7]dec-2-yloxy)carbonyl]-D-tryptophyl]-β-alanyl]-] to C[C@](Cc1c[nH]c2ccccc12)(NC(=O)OC1C2CC3CC(C2)CC1C3)C(=O)NCCC(=O)N[C@@H](Cc1ccccc1)C(=O)O (stereo partly drawn) [Example 33, S-Phenylalanine N-[N-[α-methyl-N-[(tricyclo-[3.3.1.1^3,7]dec-2-yloxy)carbonyl]-R-tryptophyl]-β-alanyl]], the Ki falls from 103 nM to 22 nM (4.7-fold).

Compared with C[C@](CC(=O)N[C@H](C(=O)O)c1ccccc1)(Cc1c[nH]c2ccccc12)NC(=O)OC1C2CC3CC(C2)CC1C3 (stereo partly drawn) [Example 90, N-[D-3-(1H-indol-3-ylmethyl)-3-methyl-N-[(tricyclo [3.3.1.1^3,7]dec-2-yloxy)carbonyl]-β-alanyl]-L-2-phenylglycine], C[C@](Cc1c[nH]c2ccccc12)(NC(=O)OC1C2CC3CC(C2)CC1C3)C(=O)N[C@H](C(=O)O)c1ccccc1 (stereo partly drawn) [Example 91, [R-(R*,S)]-α-[[3-(1H-indol-3-yl)-2-methyl-1-oxo-2-[[(tricyclo[3.3.1.1^3,7]dec-2-yloxy)carbonyl]amino]proipyl]amino]benzeneacetic acid, [R-(R*,S*)]-] is 8.6-fold lower in Ki: 942 nM for the first, 110 nM for the second.

C[C@](CNC(=O)c1ccccc1)(Cc1c[nH]c2ccccc12)NC(=O)OC1C2CC3CC(C2)CC1C3 (stereo partly drawn) [Example 20, Carbamic acid, [2-(benzoylamino)-1-(1H-indol-3-ylmethyl)-1-methylethyl]-, tricyclo[3.3.1.1^3,7]dec-2-yl ester, (R)-] and C[C@](CNC(=O)Cc1ccccc1)(Cc1c[nH]c2ccccc12)NC(=O)OC1C2CC3CC(C2)CC1C3 (stereo partly drawn) [Example 22, Carbamic acid, [1-(1H-indol-3-ylmethyl)-1-methyl-2-[(2-phenylacetyl)amino]ethyl]-, tricyclo[3.3.1.1^3,7]-dec-2-yl ester. (R)-] are within 1.5-fold of each other in Ki: 493 nM for the first, 704 nM for the second.

Going from CC(CNC(=O)O[C@@H]1C[C@@H]2CC[C@@]1(C)C2(C)C)(Cc1c[nH]c2ccccc12)C(=O)N[C@H](COC(=O)CCC(=O)O)Cc1ccccc1 (stereo partly drawn) [Example 56, Butanedioic acid, mono 2-[[2-(1H-indol-3-ylmethyl)-2-methyl-1-oxo-3-[[(1,7,7-trimethylbicyclo[2.2.1]hept-2-yloxy)carbonyl]-amino]propyl]amino]-3-phenylpropyl ester (Bicyclo system is 1S-endo, phenvlmethyl center is S. other center is RS)] to C[C@@](Cc1c[nH]c2ccccc12)(NC(=O)OC1C2CC3CC(C2)CC1C3)C(=O)NCCC(=O)N[C@H](CO)Cc1ccccc1 (relative stereo) [Example 24, Carbamic acid, [1-(1H-indol-3-ylmethyl)-2-[[3-[[1-hydroxymethyl)-2-iphenylethyl]amino]-3-oxopropyl]-amino]-1-methyl-2-oxoethyl]-, tricyclo[3.3.1.1^3,7]dec-2-ylester, [S-(R*,R*)]-], the Ki rises from 23 nM to 1100 nM (48-fold). The first binds more tightly here.

First: N#CC(=Cc1c[nH]c2ccccc12)C(=O)NCCc1ccccc1 [Example 58]
Second: CC(=O)N(C[C@@](C)(Cc1c[nH]c2ccccc12)NC(=O)OC1C2CC3CC(C2)CC1C3)[C@H](CO)Cc1ccccc1 (stereo partly drawn) [Example 8, Tricyclo[3.3.1.1^3,7]dec-2-yl[R-(R*,S*)]-[acetyl[1-(hydroxymethyl)-2-phenylethyl]amino]-2-(1H-indol-3-ylmethyl)prop-2-ylcarbamate]
The Ki of the first is 2.9-fold lower: 110 nM for the first, 318 nM for the second. The first binds more tightly here.

First: C[C@@](Cc1c[nH]c2ccccc12)(NC(=O)OC1C2CC3CC(C2)CC1C3)C(=O)NCCC(=O)N[C@@H](Cc1ccccc1)C(=O)OCc1ccccc1 (stereo partly drawn) [Example 31, Propanoic acid, 2-[[3-[[3-(1H-indol-3-yl)-2-methyl-1-oxo-2-[[(tricyclo[3.3.1.1^3,7]dec-2-yloxy)carbonyl]amino]propyl]amino]-1-oxopropyl]-amino]-3-phenyl-, phenylmethyl ester, [S-(R*,R*)]-]
Second: CC(Cc1c[nH]c2ccccc12)(NC(=O)OC1C2CC3CC(C2)CC1C3)C(=O)NC1CCCCC1C(=O)O (stereo not shown) [Example 121, 2-[[3-(1H-indol-3-yl)-2-methyl-1-oxo-2-[[(tricyclo-[3.3.1.1^3,7]dec-2-yloxy)carbonyl]amino]propyl]amino]cyclohexanecarboxylic acid]
The Ki of the first is 600-fold higher: 1200 nM for the first, 2 nM for the second.

Reference: patent publication US5846942A, “Cholecystokinin antagonists, their preparation and therapeutic use” (Warner-Lambert Company, priority 1996, dated 1998)
